The source of these data is patent US6930093B2, “Use of ribofuranose derivatives against inflammatory bowel diseases” (Valeant Research & Development, priority 2003, dated 2005).

Several values for one entry are separate records, joined by “and”; a condition that tells them apart may be missing. Equal values may be shown once.

For this experiment, the system named is DNBS induced distal colitis in Wistar rats. In words: DNBS (2,4 dinitrobenzenesulfonic acid) induced distal colitis in Wistar rats as a model for inflammatory bowel disease. The format is in vivo, Wistar derived female rats. The conditions noted are these: for I: Table 3; for I / Colon weight per 100 g B.W.: ribavirin 100 mg/kg × 7 or sulfasalazine 300 mg/kg × 7 p.o.; for Colon weight per 100 g B.W.: sacrifice 24 hours after final dosing. How it is done:
Wistar derived female rats were provided by MDS Pharma Services Taiwan Ltd. and housed in APEC^R cages. All animals were maintained in a controlled temperature (22° C.-24° C.) and humidity (60-80%) environment with 12 hours light dark cycles for at least one week in the laboratory prior to use. Free access to standard lab chow (LabDiet, Rodent Diet, PMI Nutrition International, USA) and tap water was granted. All aspects of the work including housing, experimentation and disposal of animals were performed in general accordance with the International Guiding Principles for Biomedical Research Involving Animals (CIOMSI Publication No. ISBN 9290360194, 1985).
[…] (TCI, Japan), absolute ethanol (Merck, Germany), sodium chloride (Wako, Japan), sulfasalazine (Sigma, USA) and Tween 80 (Wako, Japan).
Groups of 3 Wistar derived female rats weighing 180±20 grams and fasted for 24 hours were used. Distal colitis was induced by intra-colonic instillation of 2,4-ninitrobenzene sulfonic acid (DNBS; 30 mg in 0.5 mL ethanol 30%), which was followed by injection of air (2 mL) through a cannula to ensure that the solution remained in the colon. […] Two control groups were similarly treated with vehicle alone while challenged with either DNBS (vehicle-control) or 0.9% NaCl solution (blank-control). The animals were sacrificed 24 hours after the final dosing of test compound and each colon was removed and weighed. During the experiment, the presence of diarrhea was recorded daily. Furthermore, when the abdominal cavity was opened, adhesions between the colon and other organs were first noted; presence of colonic ulceration was evaluated after removal and weighing of each colon. The colon-to-body weight (BW) ratio was then calculated for each animal according to the formula: Colon [(g)/BW(g)]×100%. The “Net” increase in the ratio of vehicle-control+DNBS group relative to vehicle-control group was used as a base for comparison with test substance treated groups and expressed as percent decrease. A 30% or more (≧30%) reduction in colon-to-body weight ratio, relative to the vehicle-treated control group, is considered significant.

For `NC(=O)c1ncn([C@@H]2O[C@H](CO)[C@@H](O)[C@H]2O)n1` [Ribavirin, 1-β-D-ribofuranosyl-1H-1,2,4-triazole-3-carboxamide], where the note is “group Avg of 3 rats”, the I came out at 0.733. Where the note is “individual animals (N 1-3)”, the I was 0.780 and 0.619 and 0.800; the “Colon weight per 100 g B.W.” value is 0.96 and 1.24. In addition, the “effectiveness in this IBD model” value (ribavirin 100 mg/kg p.o., 24 and 2 hours before DNBS and then daily for 5 days) is given as “effective”.
Regarding `O=C(O)c1cc(/N=N/c2ccc(S(=O)(=O)Nc3ccccn3)cc2)ccc1O` [Sulfasalazine, sulfasalazine], for the setting “group Avg of 3 rats”, the I is 0.625 and the “Colon weight per 100 g B.W.” value came out at 0.98. For the same compound, where the note is “individual animals (N 1-3)”, the I was 0.631 and 0.548 and 0.697; the “Colon weight per 100 g B.W.” value is 1.01 and 0.85 and 1.08.
